Experimental data: patent publication US6982348B2, “Aminoethanol derivatives” (Takeda Pharmaceutical Company Limited, priority 2001, dated 2006)

SMILES | melting point [°C]
O=C(N[C@H](Cc1cccc(OC(F)(F)C(F)F)c1)[C@@H](O)c1ccc(Cl)s1)c1cccc2c1C=CCCC2 (racemic) [Example 289, N-[(1RS,2RS)-2-(5-chloro-2-thienyl)-2-hydroxy-1-[3-(1,1,2,2-tetrafluoroethoxy)benzyl]ethyl]-6,7-dihydro-5H-benzo[a]cycloheptene-1-carboxamide] | 177 to 178
O=C(N[C@H](Cc1cccc(OC(F)(F)C(F)F)c1)[C@@H](O)c1ccc(Br)cc1)c1cccc2c1C=CCCC2 (racemic) [Example 290, N-[(1RS,2SR)-2-(4-bromophenyl)-2-hydroxy-1-[3-(1,1,2,2-tetrafluoroethoxy)benzyl]ethyl]-6,7-dihydro-5H-benzo[a]cycloheptene-1-carboxamide] | 184 to 185
O=C(N[C@H](Cc1cccc(OC(F)(F)C(F)F)c1)[C@@H](O)c1ccc(-c2ccsc2)cc1)c1cccc2c1C=CCCC2 (racemic) [Example 292, N-[(1RS,2SR)-2-hydroxy-1-[3-(1,1,2,2-tetrafluoroethoxy)benzyl]-2-[4-(3-thienyl)phenyl]ethyl]-6,7-dihydro-5H-benzo[a]cycloheptene-1-carboxamide] | 178 to 179
O=C(N[C@H](Cc1cccc(OC(F)(F)C(F)F)c1)[C@@H](O)c1ccc(-c2ccc(Cl)cc2)cc1)c1cccc2c1C=CCCC2 (racemic) [Example 294, N-[(1RS,2SR)-2-(4′-chloro[1,1′-biphenyl]-4-yl)-2-hydroxy-1-[3-(1,1,2,2-tetrafluoroethoxy)benzyl]ethyl]-6,7-dihydro-5H-benzo[a]cycloheptene-1-carboxamide] | 167 to 168
COc1ccc(-c2ccc([C@H](O)[C@@H](Cc3cccc(OC(F)(F)C(F)F)c3)NC(=O)c3cccc4c3C=CCCC4)cc2)cc1 (racemic) [Example 297, N-[(1RS,2SR)-2-hydroxy-2-(4′-methoxy[1,1′-biphenyl]-4-yl)-1-[3-(1,1,2,2-tetrafluoroethoxy)benzyl]ethyl]-6,7-dihydro-5H-benzo[a]cycloheptene-1-carboxamide] | 162 to 163
COc1cccc(-c2ccc([C@H](O)[C@@H](Cc3cccc(OC(F)(F)C(F)F)c3)NC(=O)c3cccc4c3C=CCCC4)cc2)c1 (racemic) [Example 298, N-[(1RS,2SR)-2-hydroxy-2-(3′-methoxy[1,1′-biphenyl]-4-yl)-1-[3-(1,1,2,2-tetrafluoroethoxy)benzyl]ethyl]-6,7-dihydro-5H-benzo[a]cycloheptene-1-carboxamide] | 79 to 81
O=Cc1ccc(-c2ccc([C@H](O)[C@@H](Cc3cccc(OC(F)(F)C(F)F)c3)NC(=O)c3cccc4c3C=CCCC4)cc2)cc1 (racemic) [Example 299, N-[(1RS,2SR)-2-(4′-formyl[1,1′-biphenyl]-4-yl)-2-hydroxy-1-[3-(1,1,2,2-tetrafluoroethoxy)benzyl]ethyl]-6,7-dihydro-5H-benzo[a]cycloheptene-1-carboxamide] | 174 to 176
O=Cc1cccc(-c2ccc([C@H](O)[C@@H](Cc3cccc(OC(F)(F)C(F)F)c3)NC(=O)c3cccc4c3C=CCCC4)cc2)c1 (racemic) [Example 300, N-[(1RS,2SR)-2-(3′-formyl[1,1′-biphenyl]-4-yl)-2-hydroxy-1-[3-(1,1,2,2-tetrafluoroethoxy)benzyl]ethyl]-6,7-dihydro-5H-benzo[a]cycloheptene-1-carboxamide] | 103 to 105
O=C(N[C@H](Cc1cccc(OC(F)(F)C(F)F)c1)[C@@H](O)c1ccc(-c2cccc(CO)c2)cc1)c1cccc2c1C=CCCC2 (racemic) [Example 303, N-[(1RS,2SR)-2-[3′-(hydroxymethyl)[1,1′-biphenyl]-4-yl]-2-hydroxy-1-[3-(1,1,2,2-tetrafluoroethoxy)benzyl]ethyl]-6,7-dihydro-5H-benzo[a]cycloheptene-1-carboxamide] | 178 to 179
O=C(N[C@H](Cc1cccc(OC(F)(F)C(F)F)c1)[C@@H](O)c1ccc(-c2ccc(CO)cc2)cc1)c1cccc2c1C=CCCC2 (racemic) [Example 304, N-[(1RS,2SR)-2-[4′-(hydroxymethyl)[1,1′-biphenyl]-4-yl]-2-hydroxy-1-[3-(1,1,2,2-tetrafluoroethoxy)benzyl]ethyl]-6,7-dihydro-5H-benzo[a]cycloheptene-1-carboxamide] | 189 to 191
COC(=O)c1ccc([C@@H](O)[C@H](Cc2cccc(OC(F)(F)C(F)F)c2)NC(=O)OC(C)(C)C)cc1 (racemic) [Example 308, methyl 4-[(1RS,2SR)-2-[(tert-butoxycarbonyl)amino]-1-hydroxy-3-[3-(1,1,2,2-tetrafluoroethoxy)phenyl]propyl]benzoate] | 148 to 150
COC(=O)c1ccc([C@@H](O)[C@H](Cc2cccc(OC(F)(F)C(F)F)c2)NC(=O)c2cccc3c2C=CCCC3)cc1 (racemic) [Example 309, methyl 4-[(1RS,2SR)-2-[(6,7-dihydro-5H-benzo[a]cyclohepten-1-ylcarbonyl)amino]-1-hydroxy-3-[3-(1,1,2,2-tetrafluoroethoxy)phenyl]propyl]benzoate] | 137 to 138
O=C(O)c1ccc([C@@H](O)[C@H](Cc2cccc(OC(F)(F)C(F)F)c2)NC(=O)c2cccc3c2C=CCCC3)cc1 (racemic) [Example 310, 4-[(1RS,2SR)-2-[(6,7-dihydro-5H-benzo[a]cyclohepten-1-ylcarbonyl)amino]-1-hydroxy-3-[3-(1,1,2,2-tetrafluoroethoxy)phenyl]propyl]benzoic acid] | 210 to 211

Results, then the molecule that gave them:

melting point [°C] | SMILES
161 to 162 | CC(C)Oc1cccc(C[C@@H](NC(=O)c2cccc3c2C=CCCC3)[C@@H](O)c2ccc(F)cc2)c1 (racemic) [Example 282, N-[(1RS,2SR)-2-(4-fluorophenyl)-2-hydroxy-1-(3-isopropoxybenzyl)ethyl]-6,7-dihydro-5H-benzo[a]cycloheptene-1-carboxamide]
190 to 191 | CC(C)Oc1cccc(C[C@@H](NC(=O)c2ccc(F)c3ccccc23)[C@@H](O)c2ccc(F)cc2)c1 (racemic) [Example 283, 4-fluoro-N-[(1RS,2SR)-2-(4-fluorophenyl)-2-hydroxy-1-(3-isopropoxybenzyl)ethyl]-1-naphthamide]
179 to 180 | O=C(N[C@H](Cc1cccc(O)c1)[C@@H](O)c1ccc(F)cc1)c1ccc(F)c2ccccc12 (racemic) [Example 286, 4-fluoro-N-[(1RS,2SR)-2-(4-fluorophenyl)-2-hydroxy-1-(3-hydroxybenzyl)ethyl]-1-naphthamide]
136 to 137 | O=C(N[C@H](Cc1cccc(OC(F)(F)C(F)F)c1)[C@@H](O)c1ccc(F)cc1)OCc1ccccc1 (racemic) [Example 287, benzyl N-[(1RS,2SR)-2-(4-fluorophenyl)-2-hydroxy-1-[3-(1,1,2,2-tetrafluoroethoxy)benzyl]ethyl]carbamate]
115 to 116 | CC1(C)CC=Cc2c(cccc2C(=O)N[C@H](Cc2cccc(OC(F)(F)C(F)F)c2)[C@@H](O)c2ccc(F)cc2)C1 (racemic) [Example 288, N-[(1RS,2SR)-2-(4-fluorophenyl)-2-hydroxy-1-[3-(1,1,2,2-tetrafluoroethoxy)benzyl]ethyl]-6,6-dimethyl-6,7-dihydro-5H-benzo[a]cycloheptene-1-carboxamide]
122 to 123 | O=C(N[C@H](Cc1cccc(OC(F)(F)C(F)F)c1)[C@@H](O)c1ccc(-c2ccccc2)cc1)c1cccc2c1C=CCCC2 (racemic) [Example 291, N-[(1RS,2SR)-2-(1,1′-biphenyl-4-yl)-2-hydroxy-1-[3-(1,1,2,2-tetrafluoroethoxy)benzyl]ethyl]-6,7-dihydro-5H-benzo[a]cycloheptene-1-carboxamide]
172 to 173 | O=C(N[C@H](Cc1cccc(OC(F)(F)C(F)F)c1)[C@@H](O)c1ccc(-c2ccccc2Cl)cc1)c1cccc2c1C=CCCC2 (racemic) [Example 293, N-[(1RS,2SR)-2-(2′-chloro[1,1′-biphenyl]-4-yl)-2-hydroxy-1-[3-(1,1,2,2-tetrafluoroethoxy)benzyl]ethyl]-6,7-dihydro-5H-benzo[a]cycloheptene-1-carboxamide]
131 to 132 | O=C(N[C@H](Cc1cccc(OC(F)(F)C(F)F)c1)[C@@H](O)c1ccc(-c2cccc(Cl)c2)cc1)c1cccc2c1C=CCCC2 (racemic) [Example 295, N-[(1RS,2SR)-2-(3′-chloro[1,1′-biphenyl]-4-yl)-2-hydroxy-1-[3-(1,1,2,2-tetrafluoroethoxy)benzyl]ethyl]-6,7-dihydro-5H-benzo[a]cycloheptene-1-carboxamide]
148 to 150 | COc1ccccc1-c1ccc([C@H](O)[C@@H](Cc2cccc(OC(F)(F)C(F)F)c2)NC(=O)c2cccc3c2C=CCCC3)cc1 (racemic) [Example 296, N-[(1RS,2SR)-2-hydroxy-2-(2′-methoxy[1,1′-biphenyl]-4-yl)-1-[3-(1,1,2,2-tetrafluoroethoxy)benzyl]ethyl]-6,7-dihydro-5H-benzo[a]cycloheptene-1-carboxamide]
195 to 196 | O=Cc1ccccc1-c1ccc([C@H](O)[C@@H](Cc2cccc(OC(F)(F)C(F)F)c2)NC(=O)c2cccc3c2C=CCCC3)cc1 (racemic) [Example 301, N-[(1RS,2SR)-2-(2′-formyl[1,1′-biphenyl]-4-yl)-2-hydroxy-1-[3-(1,1,2,2-tetrafluoroethoxy)benzyl]ethyl]-6,7-dihydro-5H-benzo[a]cycloheptene-1-carboxamide]
152 to 154 | O=C(N[C@H](Cc1cccc(OC(F)(F)C(F)F)c1)[C@@H](O)c1ccc(-c2ccccc2CO)cc1)c1cccc2c1C=CCCC2 (racemic) [Example 302, N-[(1RS,2SR)-2-[2′-(hydroxymethyl)[1,1′-biphenyl]-4-yl]-2-hydroxy-1-[3-(1,1,2,2-tetrafluoroethoxy)benzyl]ethyl]-6,7-dihydro-5H-benzo[a]cycloheptene-1-carboxamide]
101 to 104 | CC1(C)CCC=Cc2c(C(=O)N[C@H](Cc3cccc(OC(F)(F)C(F)F)c3)[C@@H](O)c3ccc(F)cc3)cccc21 (racemic) [Example 305, N-[(1RS,2SR)-2-(4-fluorophenyl)-2-hydroxy-1-[3-(1,1,2,2-tetrafluoroethoxy)benzyl]ethyl]-5,5-dimethyl-6,7-dihydro-5H-benzo[a]cycloheptene-1-carboxamide]
